Results reported in paper PMC4760952, “Structural basis of interprotein electron transfer in bacterial sulfite oxidation” (eLife, 2015).

Target: T1, SorT (Sinorhizobium meliloti, UniProt Q92M24)
T1 construct: gene SMc04049; recombinant periplasmic SorT, purified as in Low et al. 2011; homodimer; 33 N-terminal residues not seen in the complex crystal
T1 sequence (Q92M24 32-399): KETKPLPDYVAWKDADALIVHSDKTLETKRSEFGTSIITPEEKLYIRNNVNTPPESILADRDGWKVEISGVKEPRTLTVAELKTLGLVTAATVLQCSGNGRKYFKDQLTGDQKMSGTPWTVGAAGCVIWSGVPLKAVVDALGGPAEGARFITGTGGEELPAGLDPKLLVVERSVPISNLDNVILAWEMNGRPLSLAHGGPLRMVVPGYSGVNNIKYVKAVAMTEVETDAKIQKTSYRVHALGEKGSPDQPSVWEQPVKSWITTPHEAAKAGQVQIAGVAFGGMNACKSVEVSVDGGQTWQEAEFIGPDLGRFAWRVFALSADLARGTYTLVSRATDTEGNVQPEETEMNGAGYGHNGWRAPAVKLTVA
Test: sulfite dehydrogenase assay, SorU reduction at […] nm
Type: biochemical
Conditions: electron acceptor SorU

Structure (SMILES): O=S(O)O [sulfite]
- sulfite dehydrogenase assay, SorU reduction at 550 nm: Sulfite dehydrogenase enzyme assays were carried out as described previously
